Laboratory results published in the NIST ThermoML archive (doi:10.1016/j.jct.2017.06.001).

Test: xn = mol fraction of the nth substance listed
Settings: 318.15 K, 100 kPa, Liquid; for speed of sound: Frequency=5 MHz, Pulse-echo method; for mass density: Vibrating tube method

OCCCCCO [1,5-pentanediol] + O
Settings	mass density [kg/m3]	speed of sound [m/s]
x1 = 0.005	989.65	–
x1 = 0.0101	989.41	–
x1 = 0.0196	989.31	–
x1 = 0.0251	989.53	–
x1 = 0.0304	989.77	–
x1 = 0.05	990.21	–
x1 = 0.0769	990.38	–
x1 = 0.1002	990.62	–
x1 = 0.1438	990.42	–
x1 = 0.1836	–	1646.1
x1 = 0.1845	989.72	–
x1 = 0.1877	–	1645.8
x1 = 0.1923	–	1645.5
x1 = 0.1928	–	1645.4
x1 = 0.1977	–	1645
x1 = 0.2017	–	1644.7
x1 = 0.2025	–	1644.6
x1 = 0.2049	–	1644.4
x1 = 0.2132	–	1643.6
x1 = 0.2224	–	1642.7
x1 = 0.2331	–	1641.6
x1 = 0.2482	–	1640
x1 = 0.2503	988.52	–
x1 = 0.2698	–	1637.7
x1 = 0.2859	–	1635.9
x1 = 0.2955	–	1634.9
x1 = 0.3	987.37	–
x1 = 0.312	–	1633
x1 = 0.3191	–	1632.2
x1 = 0.3343	986.64	–
x1 = 0.3352	–	1630.3
x1 = 0.3499	–	1628.6
x1 = 0.3678	–	1626.5
x1 = 0.3857	–	1624.3
x1 = 0.4054	–	1621.9
x1 = 0.4171	985.02	–
x1 = 0.4216	–	1619.8
x1 = 0.4392	–	1617.6
x1 = 0.4494	–	1616.3
x1 = 0.454	984.19	–
x1 = 0.4703	–	1613.5
x1 = 0.4894	–	1611
x1 = 0.5003	983.3	–
x1 = 0.5038	–	1609.1
x1 = 0.5212	–	1606.7
x1 = 0.5362	982.6	–
x1 = 0.5442	–	1603.6
x1 = 0.565	–	1600.8
x1 = 0.5841	–	1598.3
x1 = 0.6039	–	1595.7
x1 = 0.6177	981.2	–
x1 = 0.6258	–	1592.8
x1 = 0.6425	–	1590.6
x1 = 0.6478	980.7	–
x1 = 0.6602	–	1588.3
x1 = 0.6789	–	1586
x1 = 0.6988	–	1583.5
x1 = 0.7025	979.9	–
x1 = 0.7197	–	1581
x1 = 0.7436	–	1578.2
x1 = 0.7504	979.2	–
x1 = 0.7664	–	1575.6
x1 = 0.7919	–	1572.7
x1 = 0.7927	978.5	–
x1 = 0.8187	–	1569.8
x1 = 0.8416	–	1567.3
x1 = 0.8605	977.4	–
x1 = 0.864	–	1564.8
x1 = 0.8864	–	1562.4
x1 = 0.9004	976.7	–
x1 = 0.9086	–	1560
x1 = 0.926	–	1558
x1 = 0.9413	–	1556.3
x1 = 0.9573	–	1554.4
x1 = 0.971	–	1552.7
x1 = 0.9808	–	1551.5
x1 = 0.9903	–	1550.3
x1 = 0.9952	–	1549.7
x1 = 1	–	1549
